What all share (test): relative viability (nuclei count vs DMSO), 5 days (fraction); higher = more cells survive
Compound in test [1]: CN1C=C(C2=CC=CC=C21)/C=C\3/C4=C(C=CC=N4)NC3=O + CS(=O)(=O)N1CCN(Cc2cc3nc(-c4cccc5[nH]ncc45)nc(N4CCOCC4)c3s2)CC1 [Pictilisib] (partner 1 µM)
An outline of the steps: (§1)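 After 5 days of treatment, lung cancer cells in 1536-well plates were fixed and stained in a single step (final 0.05% Triton X-100, 1% formaldehyde, 1 ug/ml Hoechst) and their nuclei counted on 4× images. Treatment had been applied by pin tool the day after seeding as one drug alone or as a fixed anchor-drug dose with five library-drug doses (not always all listed) in √10 steps. Relative viability is the nuclei count of treated wells divided by that of vehicle wells, and values are medians of duplicate plates.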

Compound in test [2]: CN1C=C(C2=CC=CC=C21)/C=C\3/C4=C(C=CC=N4)NC3=O + C[C@@H](Oc1cc(-c2cnn(C3CCNCC3)c2)cnc1N)c1c(Cl)ccc(F)c1Cl [Crizotinib] (partner 1 µM)
An outline of the steps:
as §1

Compound in the test “Trametinib + Foretinib”: CC(=O)Nc1cccc(-n2c(=O)n(C3CC3)c(=O)c3c(Nc4ccc(I)cc4F)n(C)c(=O)c(C)c32)c1 [Trametinib] + COc1cc2c(Oc3ccc(NC(=O)C4(C(=O)Nc5ccc(F)cc5)CC4)cc3F)ccnc2cc1OCCCN1CCOCC1 [Foretinib] (partner 0.25 µM)
In outline: as §1

Compound in the test “Trametinib + Tozasertib”: CC(=O)Nc1cccc(-n2c(=O)n(C3CC3)c(=O)c3c(Nc4ccc(I)cc4F)n(C)c(=O)c(C)c32)c1 [Trametinib] + Cc1cc(Nc2cc(N3CCN(C)CC3)nc(Sc3ccc(NC(=O)C4CC4)cc3)n2)n[nH]1 [Tozasertib] (partner 0.1 µM)
In outline: as §1

UMC-11: the relative viability in test [1] (first compound 0.02 µM) was 0.742; in test [1] (first compound 0.06325 µM), 0.553; in test [1] (first compound 0.2 µM), 0.549; in test [1] (first compound 0.6325 µM), 0.763; in test [1] (first compound 2 µM) it was 0.875; in test [2] (first compound 0.02 µM) it was 0.448. Further, the relative viability stood at 0.543 in test [2] (first compound 0.06325 µM); 0.578 in test [2] (first compound 0.2 µM); 0.855 in test [2] (first compound 0.6325 µM); 0.786 in test [2] (first compound 2 µM); 1 with Trametinib + Foretinib (first compound 0.0025 µM); 1.03 in the test with Trametinib + Foretinib (first compound 0.007906 µM). The relative viability with Trametinib + Foretinib (first compound 0.025 µM) was determined as 0.997; in the test with Trametinib + Foretinib (first compound 0.07906 µM), 1.06; in the test with Trametinib + Foretinib (first compound 0.25 µM) it was 1.03; in the test with Trametinib + Tozasertib (first compound 0.0025 µM), 0.199; with Trametinib + Tozasertib (first compound 0.007906 µM), 0.195; with Trametinib + Tozasertib (first compound 0.07906 µM) it was 0.19. In the test with Trametinib + Tozasertib (first compound 0.25 µM), the relative viability amounted to 0.211.

Values taken from the supplement of paper PMC10307832.
